Source: patent US20230295152A1 (SENDA BIOSCIENCES, INC., priority 2019, published 2023)

What was measured:
[1] = target: T1, CYP3A4 (Homo sapiens, UniProt P08684); assay: CYP Inhibition Assay in human liver microsomes, CYP3A4; assay type: in vitro ADME; details: pH 7.4
T1 construct: from tissue; host or cells: human liver microsomes (HLM)
Description: Stock solutions of test compounds were prepared in DMSO at the concentrations of 10 mM. Stock solution was diluted to 2 mM with acetonitrile. The final concentration of test compounds was 10 μM. For the stock solution preparation, if the positive control could not be well dissolved in the mixture of DMSO and acetonitrile (1:4) at the highest concentration, another mixture of acetonitrile and DMSO, the mixture of acetonitrile and H2O or DMSO will be used to dissolve the compound.
The substrate solutions are stored in a −20° C. freezer and warmed to room temperature prior to use.
Preparation of Phosphate Buffer (100 mmol/L, pH 7.4): To prepare the Solution A, 7.098 g of disodium hydrogen phosphate were weighed out and added into 500 mL of pure water, then sonicated to dissolve the content. To prepare the Solution B, 3.400 g of potassium dihydrogen phosphate were weighed out and added into 250 mL of pure water, then sonicated to dissolve the content. Solution A was placed on a stirrer and slowly Solution B was added into Solution A until the pH reached 7.4. Preparation of 10 mmol/L NADPH Solution: NADPH was dissolved at 8.334 mg/mL in phosphate buffer; the solution was freshly prepared prior to use.
The master solution was prepared according to Table 45. The incubation was carried out in 96 deep well plates. The following volumes were dispensed into each well of the incubation plate: 179 μL of the substrate and HLM mixture in phosphate buffer, 1 μL of the compound working solution, or vehicle (mixture of DMSO and acetonitrile (1:4)). The incubation plate was placed into the water bath and pre-warmed at 37° C. for 15 minutes before the reactions was started by the addition of 20 μL of 10 mmol/L NADPH solution in phosphate buffer. After the addition of NADPH, the incubation plate was incubated at 37° C. for corresponding time. The assay was performed in duplicate.
The reaction was quenched by the addition of 1.5 volume (300 μL) of cold acetonitrile containing 3% formic acid and internal standards (200 nM Labetalol, 200 nM Alprazolam and 200 nM tolbutamide). The plate was centrifuged at 3,220 g for 40 minutes. 100 μL of the supernatant was transferred to a new plate. The supernatant was diluted with 100 μL pure water. The samples were mixed well and analyzed using UPLC/MS/MS.
Data Analysis: The automatic peak integration areas are checked for all the samples. The Analyte Peak Area and Internal Standard Peak Area are exported into excel spreadsheet. The inhibition of each P450 enzyme in human liver microsomes is measured as the percentage decrease in the activity of marker metabolite formation compared to non-inhibited controls (=100% activity).
The percentage of remaining activity was calculated as follows: […]

[2] = Plasma Protein Binding with Ultracentrifugation Method, rat; assay type: in vitro ADME; details: for fraction unbound at 30 min, 1 μM: rat plasma, read-out: Rat plasma protein binding (% bound); for fraction unbound at 5.5 h, 1 μM: rat, plasma, read-out: Plasma Protein Binding PPB (r) % (converted)
Description: The frozen plasma (stored at −80° C.) was thawed in a 37° C. water bath, followed by centrifugation at 3,220 g for 10 minutes to remove clots. The supernatant was removed into a new tube as the spun plasma. The spun plasma was pre-warmed in a 37° C. water bath for 10 minutes. The stock solutions of test compounds were diluted to 200 μM in DMSO, and then spiked into the plasma. Duplicate samples were prepared. The final concentration of compound was 1.0 μM. The final concentration of organic solvent was 0.5%. Warfarin was used as positive control in the assay. 1.0 mL of the spiked plasma was transferred to a new balance ultracentrifuge tube. Samples were incubated at 37° C., 5% CO2 for 30 minutes. After incubation, the balance ultracentrifuge tubes were centrifuged at 600,000 g for 5.5 hours at 37° C. After centrifugation, 50 μL solution was removed from the center of the ultracentrifuge tubes as the post-ultracentrifugation samples, followed by the addition of 50 μL blank plasma and 400 μL quench solution (acetonitrile containing internal standards (IS, 100 nM Alprazolam, 500 nM Labetalol and 2 μM Ketoprofen)) to precipitate protein and release compounds. Samples were vortexed for 2 minutes, followed by centrifugation at 20,000 g for 15 minutes at room temperature. The supernatant was diluted with ultrapure water and then used for LC-MS/MS analysis. Stability samples was prepared by transferring 50 μL of the spiked plasma to 0.6 mL tubes and incubated at 37° C., 5% CO2 for 0.5 and 6 hours. After incubation, 50 μL PBS (100 mM, pH7.4) and 400 μL quench solution were added to the stability samples. And then stability samples were treated the same way as the post-ultracentrifugation samples. The supernatant was diluted with ultrapure water and then used for LC-MS/MS analysis. 0.5 hour time point samples were also used as no-spun controls. Time 0 samples were prepared by transferring 50 μL spiked plasma to 0.6 mL tubes containing 50 μL PBS, followed by the addition of 400 μL quench solution to precipitate protein and release compound. And then these samples were treated the same way as the post-ultracentrifugation samples. The supernatant was diluted with ultrapure water and then used for LC-MS/MS analysis.
Data Analysis: All calculations were carried out using Microsoft Excel. The concentrations of test compound in plasma samples and post-ultracentrifugation plasma was determined from peak areas. The percentages of test compound bound was calculated as follows: […]
“+++” indicates a % bound value less than 50, “++” indicates a % bound value between 50 and 75, and “+” indicates a % bound value above 75.

T1 sequence (P08684 whole entry): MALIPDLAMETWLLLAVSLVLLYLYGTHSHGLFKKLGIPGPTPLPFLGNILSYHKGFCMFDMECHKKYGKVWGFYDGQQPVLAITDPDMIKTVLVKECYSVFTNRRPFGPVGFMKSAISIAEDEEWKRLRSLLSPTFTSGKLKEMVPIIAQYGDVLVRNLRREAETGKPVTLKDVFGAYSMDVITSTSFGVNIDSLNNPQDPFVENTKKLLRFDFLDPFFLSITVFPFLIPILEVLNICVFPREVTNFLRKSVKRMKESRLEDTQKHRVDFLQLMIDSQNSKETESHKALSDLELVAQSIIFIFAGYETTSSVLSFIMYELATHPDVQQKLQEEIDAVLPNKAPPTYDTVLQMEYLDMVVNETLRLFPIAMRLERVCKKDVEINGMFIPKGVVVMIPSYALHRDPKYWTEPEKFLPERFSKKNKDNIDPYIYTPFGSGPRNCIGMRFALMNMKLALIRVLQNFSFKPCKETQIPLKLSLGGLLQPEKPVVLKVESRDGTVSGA

| SMILES | inhibition at 10 µM [1] [%] | fraction unbound at 30 min, 1 μM [2] | fraction unbound at 5.5 h, 1 μM [2] |
| --- | --- | --- | --- |
| C[C@H](n1cnc2c(-c3cnn(C)c3)nc(-c3ccc(Cl)cc3)cc2c1=O)C(C)(C)O [Compound 30] | 12.2 | < 0.25 | – |
| O=c1c2cc(-c3ccc(Cl)cc3)nc(-c3cccnc3)c2ncn1[C@H]1COC[C@@H]1O [Compound 125, 6-(4-chlorophenyl)-3-((3S,4R)-4-hydroxytetrahydrofuran-3-yl)-8-(pyridin-3-yl)pyrido[3,4-d]pyrimidin-4(3H)-one] | 23.8 | – | – |
| CC(C)(O)Cn1cnc2c(-c3cccnc3)nc(-c3ccc(Cl)cc3)cc2c1=O [Compound 18] | 35.2 | – | – |
| C[C@@H](CO)n1cnc2c(-c3cccc(F)c3)nc(-c3ccc(Cl)cc3)cc2c1=O [Compound 7] | – | < 0.25 | – |
| C[C@@H](CO)n1cnc2c(-c3cccnc3)nc(-c3ccc(C(F)(F)F)cn3)cc2c1=O [Compound 46, (S)-3-(1-hydroxypropan-2-yl)-8-(pyridin-3-yl)-6-(5-(trifluoromethyl)pyridin-2-yl)pyrido[3,4-d]pyrimidin-4(3H)-one] | 2.26 | < 0.25 | 0.102 |
| CC(C)(O)Cn1cnc2c(-c3cccnc3)nc(-c3ccc(C(F)(F)F)nc3)cc2c1=O [Compound 9] | – | < 0.25 | 0.098 |
